Consider four compounds from patent US4897403A, “Antimalarial compositions and methods” (The United States of America as represented by the …, priority 1986, dated 1990).

Experiment [1] has as its system chloroquine-resistant clone from Brazil (IEC 306). Briefly: microbe, parasite or virus in culture. Format: cell-based, P. falciparum. The note with it: Plasmodium falciparum. Here is the method:
(§1) Throughout the examples, incorporation of radiolabelled hypoxanthine was used to measure a synchronous growth of the malarial parasites and inhibition of incorporation was the measured parameter of the parasites' rsponse to the drugs. Semi-automated microdilution techniques as disclosed by R. E. Desjardins et al, Antimicrob.
(§2) First, the antimalarial properties of verapamil (a calcium channel blocker "reversing compound") in vitro were studied. […] The drug combinations were dosed in fixed ratios of their 50% inhibitory concentrations.
(§3) The IC50 's of each drug in combination set forth in Table 1 were then calculated as a fraction of the control IC50 and plotted as a fraction of one unit of IC50 in FIG. 1. […] The line connecting each unit of IC50 for each clone represents the additivity of drug effects.

The subject of experiment [2] is Isolates of P. falciparum from Thailand. Particulars: cited from earlier work.
The subject of experiment [3] is chloroquine-sensitive West African clone (D-6). Briefly: In vitro susceptibility (radiolabelled hypoxanthine incorporation, semi-automated microdilution), Example 1, clone D-6. Format: cell-based, P. falciparum. Particulars: Plasmodium falciparum. Here is the method: as §1, §2
Experiment [4] relates to chloroquine-resistant clone from Indochina (W-2). Description: microbe, parasite or virus in culture. Particulars: for IC50: Plasmodium falciparum. Format: cell-based, P. falciparum.
Source text: as §1

Experiment [5] relates to chloroquine-sensitive West African clone (D-6). Briefly: Effect of verapamil on chloroquine sensitivity, Example 2, clone D-6. The note with it: Plasmodium falciparum, clone D-6, CQ sensitive, IC50 + 1SD. The experiment is classed as cell-based, P. falciparum.
Source text: as §1

The subject of experiment [6] is chloroquine-resistant clone from Indochina (W-2). Description: microbe, parasite or virus in culture. The note with it: Plasmodium falciparum. Here is the method:
as §1, §2, §3

Experiment [7] deals with malarial parasite growth or hypoxanthine uptake. Description: Effect of verapamil alone on malarial parasite growth or hypoxanthine uptake in vitro. The experiment is classed as cell-based, P. falciparum. Particulars: 1×10^-6 M and 2×10^-6 M.
Source text: as §1

The test system of the next experiment is malarial parasites. Description: Antimalarial properties of verapamil in vitro. The experiment is classed as cell-based, P. falciparum. Here is the method:
as §1, §2

Like-named read-outs stand apart in the source and are kept apart here.

For the compound `CCN(CC)CCCC(C)Nc1ccnc2cc(Cl)ccc12` (stereo not shown) [chloroquine], the IC50 stood at 2.8 nM in experiment [1] (read-out: IC50 of chloroquine in drug combination, CQ 25 nM/VER 75 μM fixed ratio, clone IEC-306); 6.3 nM in experiment [1] (read-out: IC50 of chloroquine in drug combination, CQ 50 nM/VER 50 μM fixed ratio, clone IEC-306); 11.7 nM in experiment [1] (read-out: IC50 of chloroquine in drug combination, CQ 75 nM/VER 25 μM fixed ratio, clone IEC-306); 52.3 nM in experiment [1] (read-out: fifty percent inhibitory concentration (IC50), single drug chloroquine, chloroquine alone, clone IEC-306); 4.4 nM in experiment [3] (read-out: IC50 of chloroquine in drug combination, CQ 25 nM/VER 75 μM fixed ratio, clone D-6); 8 nM in experiment [3] (read-out: IC50 of chloroquine in drug combination, CQ 50 nM/VER 50 μM fixed ratio, clone D-6). Besides, the IC50 in experiment [3] (read-out: IC50 of chloroquine in drug combination, CQ 75 nM/VER 25 μM fixed ratio, clone D-6) was found to be 11.4 nM; in experiment [3] (read-out: fifty percent inhibitory concentration (IC50), single drug chloroquine, chloroquine alone, clone D-6), 14.1 nM; in experiment [4] (read-out: IC50 of chloroquine + 1 × 10^-6 M VER), 8.4 ± 0.4 nM; in experiment [4] (read-out: IC50 of chloroquine + 2 × 10^-6 M VER), 5.6 ± 0.3 nM; in experiment [5] (read-out: IC50 of chloroquine + 1 × 10^-6 M VER, with 1 × 10^-6 M verapamil) it was 7.8 ± 0.6 nM; in experiment [5] (read-out: IC50 of chloroquine + 2 × 10^-6 M VER, with 2 × 10^-6 M verapamil), 8.8 ± 0.3 nM. For the same compound, the IC50 in experiment [6] (read-out: IC50 of chloroquine in drug combination, CQ 25 nM/VER 75 μM fixed ratio, clone W-2) stood at 1.5 nM; in experiment [6] (read-out: IC50 of chloroquine in drug combination, CQ 50 nM/VER 50 μM fixed ratio, clone W-2) it was 1.3 nM; in experiment [6] (read-out: IC50 of chloroquine in drug combination, CQ 75 nM/VER 25 μM fixed ratio, clone W-2), 3.8 nM. Also, in experiment [2], the “resistance of isolates in vitro” value is recorded as “resistant”. In addition, in experiment [4] (constant concentration of verapamil, compared with chloroquine-sensitive West African clone), the “sensitivity of chloroquine-resistant clone to chloroquine in presence of verapamil (FIGS. 2 and 3)” value is on record as “as sensitive to the chloroquine treatment as the chloroquine-sensitive West African clone”.

For `OC(c1cc(C(F)(F)F)nc2c(C(F)(F)F)cccc12)C1CCCCN1` (stereo not shown) [mefloquine], in experiment [2], the “resistance of isolates in vitro” value is “resistant”.

In the case of `C=C[C@H]1C[N@@]2CC[C@H]1C[C@H]2[C@H](O)c1ccnc2ccc(OC)cc12` [quinine], in experiment [2], the “resistance of isolates in vitro” value is recorded as “resistant”.

Take `COc1ccc(CCN(C)CCCC(C#N)(c2ccc(OC)c(OC)c2)C(C)C)cc1OC` (stereo not shown) [verapamil]: the “effect on malarial parasite growth or hypoxanthine uptake in vitro” value in experiment [7] was “no significant effects”. In addition, the IC50 with malarial parasites (Plasmodium falciparum, read-out: inhibitory concentration (IC50)) was in the range of 6 to 8 µg/mL. Besides, the “fold less potent than chloroquine or mefloquine” value with malarial parasites (verapamil vs chloroquine or mefloquine, in vitro) is on record as 1,000 fold.
